This passage reports inhibition results from PMC6934184, “Selective DNA-PKcs inhibition extends the therapeutic index of localized radiotherapy and chemotherapy” (The Journal of Clinical Investigation, 2019).

Structures are written as SMILES.

For this assay, the target named is T1, STK32C (YANK3) (Homo sapiens, UniProt Q86UX6).
T1 construct: purchased Thermo Fisher Scientific (Life Technologies) SelectScreen
Nature of the assay: SelectScreen LanthaScreen. The class given is binding. As to conditions: read-out: % displacement. In short, it runs like this: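 SelectScreen broad panel; activity (Z'LYTE, Adapta) plus binding formats. ATP: Km app for CSF1R Z'LYTE; 10 for CAMK1 Adapta. Readout = % per kinase.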

T1 sequence (Q86UX6 whole entry): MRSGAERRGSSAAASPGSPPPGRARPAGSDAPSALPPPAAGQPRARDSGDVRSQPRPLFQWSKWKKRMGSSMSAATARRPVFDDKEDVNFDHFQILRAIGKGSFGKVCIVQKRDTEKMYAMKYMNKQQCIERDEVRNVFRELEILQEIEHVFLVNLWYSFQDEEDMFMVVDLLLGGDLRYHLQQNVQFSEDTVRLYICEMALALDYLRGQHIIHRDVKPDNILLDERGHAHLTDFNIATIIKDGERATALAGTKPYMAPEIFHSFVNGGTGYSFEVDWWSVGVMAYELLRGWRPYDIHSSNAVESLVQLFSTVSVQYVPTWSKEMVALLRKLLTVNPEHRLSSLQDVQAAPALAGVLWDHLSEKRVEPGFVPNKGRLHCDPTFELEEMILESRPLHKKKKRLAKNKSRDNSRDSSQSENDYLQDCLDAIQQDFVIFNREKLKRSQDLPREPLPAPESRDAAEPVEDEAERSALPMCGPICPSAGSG

Turning to `CN(C(=O)CN1CCOCC1)c1ccc2sc3c(-c4cccc5c(=O)cc(N6CC7CCC(C6)O7)oc45)cccc3c2c1` [NU5455], the inhibition at 1 µM is 4.2%.
